Measurements taken from EP0067666A1, “Salts of antimicrobial naphthyridine and quinoline compounds and their production” (priority 1981, dated 1982).
≈ marks a conversion by molar mass, not a printed value.

How the values were obtained:
Staph. aureus UC-76 = experiment: Antibacterial activity, MIC; assay type: cell-based; details: based on content of compound A
Pseudo. aeruginosa UI-18 = experiment: Antibacterial activity, MIC; assay type: cell-based; details: based on content of compound A
Klebs. pneumoniae MGH-2 = experiment: Antibacterial activity, MIC; assay type: cell-based; details: based on content of compound A
E. coli Vogel = experiment: Antibacterial activity, MIC; assay type: cell-based; details: based on content of compound A
Entero cloacae MA 2646 = experiment: Antibacterial activity, MIC; assay type: cell-based; details: based on content of compound A
Proteus retgeri M 1771 = experiment: Antibacterial activity, MIC; assay type: cell-based; details: based on content of compound A
Strep. faecalis MGH-2 = experiment: Antibacterial activity, MIC; assay type: cell-based; details: based on content of compound A
Strep. pneumoniae SV-1 = experiment: Antibacterial activity, MIC; assay type: cell-based; details: based on content of compound A
Staph. aureus H 228 = experiment: Antibacterial activity, MIC; assay type: cell-based; details: based on content of compound A
Strep. pyogenes C-203 = experiment: Antibacterial activity, MIC; assay type: cell-based; details: based on content of compound A
Escherichia coli Vogel = experiment: Acute mouse protection test; assay type: in vivo; details: single dose given at time of challenge, compound A series
[1] = system: Klebsiella pneumoniae MGH-2; experiment: Acute mouse protection test; assay type: in vivo; details: single dose given at time of challenge, compound A series

| Structure (SMILES) | MIC µg/ml Staph. aureus UC-76 (Staph. aureus UC-76) | MIC µg/ml Pseudo. aeruginosa UI-18 (Pseudo. aeruginosa UI-18) | MIC µg/ml Klebs. pneumoniae MGH-2 (Klebs. pneumoniae MGH-2) | MIC µg/ml E. coli Vogel (E. coli Vogel) | MIC µg/ml Entero cloacae MA 2646 (Entero cloacae MA 2646) | MIC µg/ml Proteus retgeri M 1771 (Proteus retgeri M 1771) | MIC µg/ml Strep. faecalis MGH-2 (Strep. faecalis MGH-2) | MIC µg/ml Strep. pneumoniae SV-1 (Strep. pneumoniae SV-1) | MIC µg/ml Staph. aureus H 228 (Staph. aureus H 228) | MIC µg/ml Strep. pyogenes C-203 (Strep. pyogenes C-203) | Single po Dose PD50 (mg/kg) ± 95% Confidence Limits Escherichia coli Vogel (Escherichia coli Vogel; oral) | Single sc Dose PD50 (mg/kg) ± 95% Confidence Limits Escherichia coli Vogel (Escherichia coli Vogel; subcutaneous) | Single po Dose PD50 (mg/kg) ± 95% Confidence Limits Klebsiella pneumoniae MGH-2 ([1]; oral) | Single sc Dose PD50 (mg/kg) ± 95% Confidence Limits Klebsiella pneumoniae MGH-2 ([1]; subcutaneous) |
| --- | --- | --- | --- | --- | --- | --- | --- | --- | --- | --- | --- | --- | --- | --- |
| CCn1cc(C(=O)O)c(=O)c2cc(F)c(N3CCNCC3)cc21 [A Aspartate] | <0.1 µg/mL | <0.1 µg/mL | 0.2 µg/mL (≈ 0.626 µM) | <0.1 µg/mL | 0.1 µg/mL (≈ 0.313 µM) | <0.1 µg/mL | 1.6 µg/mL (≈ 5.01 µM) | 1.6 µg/mL (≈ 5.01 µM) | 0.8 µg/mL (≈ 2.51 µM) | 0.8 µg/mL (≈ 2.51 µM) |  |  |  |  |
| CCn1cc(C(=O)O)c(=O)c2cc(F)c(N3CCNCC3)cc21 [A Galacturo-nate] | <0.1 µg/mL | 0.1 µg/mL (≈ 0.313 µM) | 0.1 µg/mL (≈ 0.313 µM) | <0.1 µg/mL | 0.1 µg/mL (≈ 0.313 µM) | <0.1 µg/mL | 1.6 µg/mL (≈ 5.01 µM) | 1.6 µg/mL (≈ 5.01 µM) | 0.8 µg/mL (≈ 2.51 µM) | 0.8 µg/mL (≈ 2.51 µM) |  |  |  |  |
| CCn1cc(C(=O)O)c(=O)c2cc(F)c(N3CCNCC3)cc21 [A Gluconate] | 0.2 µg/mL | 0.2 µg/mL | 0.2 µg/mL | <0.1 µg/mL | 0.2 µg/mL | <0.1 µg/mL | 0.8 µg/mL | 1.6 µg/mL | 1.6 µg/mL | 0.8 µg/mL | 3.9 ± 0.9 mg/kg | 0.5 ± 0.1 mg/kg | 13 ± 6 mg/kg | 1.4 ± 0.3 mg/kg |
| CCn1cc(C(=O)O)c(=O)c2cc(F)c(N3CCNCC3)cc21 [A Glutamate] | <0.1 µg/mL | 0.1 µg/mL (≈ 0.313 µM) | 0.1 µg/mL (≈ 0.313 µM) | <0.1 µg/mL | <0.1 µg/mL | 0.1 µg/mL (≈ 0.313 µM) | 1.6 µg/mL (≈ 5.01 µM) | 1.6 µg/mL (≈ 5.01 µM) | 1.6 µg/mL (≈ 5.01 µM) | 0.8 µg/mL (≈ 2.51 µM) |  |  |  |  |
